Experiments:
[1] = pKa of nucleophilic carbon atoms; assay type: physicochemical
neonatal rat DRG cells = assay: CisPt effect on cell viability with or without protectant; assay type: cell-based; details: co-administration with CisPt, FIG. 3A
Excerpt: (§1) The enol compounds investigated in this study were gavinol, NAHA, and THA and as a point of comparison, the protective properties of thiol-based compounds, N-acetyl-L-cysteine (NAC) and sodium thiosulfate (STS), were also investigated.

[2] = test system: freshly isolated mouse hepatocytes; assay: as above; assay type: cell-based; details: co-administration with CisPt, FIG. 3B
Excerpt: as §1

osteosarcoma (HOS) = assay: CisPt-induced cancer cell lethality; assay type: cell-based; details: for effect on ability of CisPt to kill cancer cells (IC75): co-incubated with graded CisPt, FIG. 5C
mouse = assay: Mouse studies: open field, balance beam, functional observational battery, treadmill; assay type: in vivo; details: open field observations, treadmill analysis
glioblastoma (U87 MG) = assay: CisPt-induced cancer cell lethality; assay type: cell-based
neuroblastoma (SH-SY5) = assay: CisPt-induced cancer cell lethality; assay type: cell-based
[3] = acute animal toxicity; cited from earlier work
[4] = 400-600 mg/kg per day for 60 days; cited from earlier work
DRG cells = assay: Lethality of pre-formed enol-Pt complexes and Pt drugs; details: 4 hours exposure
Protocol: (§2) DRG cells and isolated mouse hepatocytes were then exposed to enol-Pt complexes for 4 hours and the respective changes in lethality were determined.

[5] = test system: isolated mouse hepatocytes; assay: as above; details: 4 hours exposure
Protocol: as §2

[6] = complexes pre-incubated 30 mins

Structure (SMILES) | protection against CisPt toxicity (neonatal rat DRG cells) | protection against CisPt toxicity [2] | effect on ability of CisPt to kill cancer cells (IC75) (osteosarcoma (HOS)) | toxicity in mouse studies (mouse) | other results
CC(=O)Nc1cc(O)c(C(C)=O)c(O)c1 [NAHA, 4-N-acetyl-2,6-dihydroxyacetaphenone] | substantial cryoprotection | substantial cryoprotection | significantly lowered the respective IC75S | not toxic | pKa [1]: 7.9
O=S([O-])([O-])=S.[Na+].[Na+] [STS, sodium thiosulfate, reference compound] | only modest protection | only modest protection | did not modify CisPt-induced cancer cell toxicity | – | effect on ability of CisPt to kill cancer cells (IC75) (glioblastoma (U87 MG); co-incubated with graded CisPt, FIG. 5B): did not modify CisPt-induced cancer cell toxicity; effect on ability of CisPt to kill cancer cells (IC75) (neuroblastoma (SH-SY5); co-incubated with graded CisPt, FIG. 5A): did not modify CisPt-induced cancer cell toxicity
CC(=O)C1CCCC1=O (centres unmarked) [2-ACP, 2-acetylcyclopentanone] | – | – | – | not toxic | LD50 [3]: > 800 mg/kg; systemic toxicity [4]: low incidence of systemic toxicity
CC(=O)c1c(O)cc(NC(=O)C2CCCC2=O)cc1O (centres unmarked) [gavinol, N-(4-acetyl-3,5-dihydroxyphenyl)-2-oxocyclopentane-1-carboxamide] | substantial cryoprotection | substantial cryoprotection | significantly lowered the respective IC75S | not toxic | –
CC(=O)N[C@@H](CS)C(=O)O [NAC, N-acetyl-L-cysteine, reference compound] | only modest protection | only modest protection | – | – | –
CC(=O)c1c(O)cc(O)cc1O [THA, 2′,4′,6′-trihydroxyacetophenone] | substantial cryoprotection | substantial cryoprotection | – | not toxic | –
N.N.O=C([O-])C1(C(=O)[O-])CCC1.[Pt+2] [CarboPt, carboplatin] | – | – | – | – | cancer cell lethality (glioblastoma (U87 MG); FIG. 6A, compared with CisPt): reduced cancer cell lethality; cytotoxicity relative to that caused by CisPt or OxaliPt (DRG cells): intermediate cytotoxicity; cytotoxicity (lethality) (DRG cells; [6]): substantial concentration-dependent DRG and hepatocyte lethality; cytotoxicity relative to that caused by CisPt or OxaliPt [5]: intermediate cytotoxicity; cytotoxicity (lethality) [5, 6]: substantial concentration-dependent DRG and hepatocyte lethality; cancer cell lethality (osteosarcoma (HOS); FIG. 6B, compared with CisPt): reduced cancer cell lethality; cancer cell lethality (neuroblastoma (SH-SY5); FIG. 6C, compared with CisPt): reduced cancer cell lethality

Source: patent US12569454B2, “Nucleophilic chemicals useful in the treatment of cisplatin-induced sensory neuropathy and ototoxicity” (MONTEFIORE MEDICAL CENTER, priority 2018, dated 2026)
